Legend:
[1] = tested on: purified primary NK cells or NKL cells; experiment: Real-time RT-PCR of mRNA in NK cells; format: cell-based, human; conditions: 10 μM PL-C, 12 h
Experimental: (A) Chemical structure of PL-C (phyllanthusmin C, 4), (9) Healthy donor PBMCs (left panel) or enriched NK cells (right panel) were treated with DMSO vehicle control or 10 μM PL-C for 18 h in the presence of […] (10 ng/mL) or IL-15 (100 ng/mL). The cells were harvested and analyzed by intracellular flow cytometry to determine the frequency of IFN-γ^+ cells in CD56^+CD3^− NK cells (n=8 for PBMC and n=5 for enriched NK). (C) Highly purified (≧99.5%) human primary NK cells were treated with 10 μM PL-C for 18 h to determine the levels of IFN-γ secretion by ELISA. IFN-γ secretion from treatment with PL-C alone (left panel) or in combination with IL-12 (10 ng/mL, middle panel) or IL-15 (100 ng/mL, right panel) is shown. (D) Cells were treated as described in (C) and harvested at 12 h, IFNG mRNA expression was assessed by real-time RT-PCR, and the relative IFNG mRNA expression of each treatment was normalized to untreated vehicle control in the same donor. Data are shown as mean±SEM (n=6 in each treatment; error bars represent SEM). *p<0.05, **p<0.01, which denote statistical comparison between the two marked treatment groups (B-D). (E) Highly purified (≧99,5%) primary human NK cells were treated with 10 μM. PL-C in combination with various concentrations of IL-12 (10, 1, and 0.1 ng/mL) or IL-15 (100, 10, and 1 ng/mL) for 24 h to determine the levels of IFN-γ secretion. Representative data from one of three donors with the similar data are shown. *p<0.05, **p<0.01, which denote statistical comparison between the two marked treatment groups and are calculated from data of all tested donors. Error bars represent SD. […]
(A) Human […] were treated with DMSO vehicle control or 10 μM PL-C for 18 hours in the presence of IL-12 (10 ng/mL) or IL-15 (100 ng/mL), as described in FIG. 37C. […] (B) Purified primary NK cells were treated with IL-12 (10 ng/mL) or IL-15 (100 ng/mL) with or without 10 μM PL-C for 8 hours and were sequentially co-cultured with […] labeled ARH-77 cells at various effector/target cell ratios for additional 4 hours. ^51Cr release was measured by a TopCount counter. […]

TLR1 or TLR6 = experiment: TLR activation assessment (NF-κB luciferase reporter in HEK293T); format: cell-based, human; conditions: various concentrations of PL-C, 24 h

With COc1cc2c(OC3OCC(O)C(O)C3O)c3c(c(-c4ccc5c(c4)OCO5)c2cc1OC)C(=O)OC3 (stereo not shown) [Compound 4, Phyllanthusmin C] the “IFNG mRNA expression in NK cells” value ([1]; alone or with IL-12 or IL-15) was “induced IFN-γ gene (IFNG) expression at the transcriptional level”, the “mRNA expression of IL-12R and IL-15R chains” value ([1]; cotreated with IL-12) was “downregulated mRNA expression of IL-12Rβ1, IL-12Rβ2, and IL-15Rα” and the “expression of cytotoxicity-associated genes (granzyme A, granzyme B, perforin, Fas ligand)” value ([1]; with IL-12 or IL-15) was “unaffected”. The “NF-κB luciferase reporter activity in TLR1- or TLR6-transfected 293T cells” value (TLR1 or TLR6) was “induce luciferase reporter activity in a dose-dependent fashion”.
